Numbers after ± are expanded uncertainties.

The conditions of data set [1]: Crystal; DTA.
Data set [2] is described as follows: Molar enthalpy of transition or fusion. The note with it: Crystal; DSC.

In the case of `O=[N+]([O-])c1cn[nH]c1[N+](=O)[O-]` [3,4-dinitro-1H-pyrazole], the Normal melting temperature in data set [1] was found to be 87.83 ± 1.1 °C. Moreover, in data set [2], the “Molar enthalpy of transition or fusion” value is 2.81 ± 0.203 kcal/mol.
